# Laboratory results: patent US11116710B2, “Antimicrobial compositions” (SYMRISE AG, priority 2016, dated 2021)
# Legend:
# S. aureus = assay: Preservative challenge test (European Pharmacopoeia 7.0, 5.1.3) in anionic emulsion with Dracorin CE; format: cell-based, Staphylococcus aureus; conditions: pH 5.5
# Method: (§1) The invention will be further described in the following on the basis of examples. The examples serve to illustrate the invention, without thereby restricting the scope of protection of the claims. For examples, 1 to 11 preservative challenge tests according to European Pharmacopoeia 7.0 (5.1.3. Efficacy of antimicrobial preservation) were used. For example 12, activities were determined by measuring minimum inhibitory concentrations (MIC values) according to DIN 58940. All numerical information relates to weight, unless stated otherwise.
# (§2) Activity of Benzoic acid-3-hydroxypropylester (BAHP) against the microorganisms E. coli, P. aeruginosa, S. aureus, C. albicans and spores of A. brasiliensis was evaluated in an anionic emulsion with Dracorin CE as emulsifier. The pH value of the emulsion was 5.5.
# (§3) Activity of Furoic acid-3-hydroxypropylester (FAHP) against the microorganisms E. coli, P. aeruginosa, S. aureus, C. albicans and spores of A. brasiliensis was evaluated in an anionic emulsion with Dracorin CE as emulsifier. The pH value of the emulsion was 5.5.
# (§4) Activity of Anisic acid-3-hydroxypropylester (AAHP) against the microorganisms E. coli, P. aeruginosa, S. aureus, C. albicans and spores of A. brasiliensis was evaluated in an anionic emulsion with Dracorin CE as emulsifier. The pH value of the emulsion was 5.5.
# (§5) Synergistic effects between Benzoic acid-3-hydroxypropylester (BAHP) and 1,2-Octanediol were determined. Activity of BAHP, 1,2-Octanediol and the combination of BAHP and 1,2-Octanediol against the microorganisms E. coli, P. aeruginosa, S. aureus, C. albicans and spores of A. brasiliensis was evaluated in an anionic emulsion with Dracorin CE as emulsifier. The pH value of the emulsion was 5.5.
# E. coli = assay: as above; format: cell-based, Escherichia coli; conditions: pH 5.5
# Method: as §1, §2, §3, §4, §5
# P. aeruginosa = assay: as above; format: cell-based, Pseudomonas aeruginosa; conditions: pH 5.5
# Method: as §1, §2, §3, §4, §5
# C. albicans = assay: as above; format: cell-based, Candida albicans; conditions: pH 5.5
# Method: as §1, §2, §3, §4, §5
# Staphylococcus aureus = assay: Minimum inhibitory concentration (MIC) according to DIN 58940; format: cell-based; conditions: for MIC: Staphylococcus aureus, read-out: MIC values (ppm) Staphylococcus aureus
# Method: as §1
# (§6) The activity of Benzoic acid-3-hydroxypropylester (BAHP), Furoic acid-3-hydroxypropylester (FAHP) and Anisic acid-3-hydroxypropylester (AAHP), Salicylic acid hydroxyethyl ester (SAHE) and Salicylic acid hydroxypropyl ester (SAHP) was determined against the microorganisms Staphylococcus aureus, Candida albicans, Aspergillus brasiliensis, Pseudomonas aeruginosa and Escherichia coli. The activity of N-Methylsalicylamid (MSA), Furoic acid methylester (FAME) and Salicylamide (SA) was determined against the microorganism Aspergillus brasiliensis.
# Pseudomonas aeruginosa = assay: as above; format: cell-based; conditions: for MIC: Pseudomonas aeruginosa, read-out: MIC values (ppm) Pseudomonas aeruginosa
# Method: as §1, §6
# Aspergillus brasiliensis = assay: as above; format: cell-based; conditions: for MIC: Aspergillus brasiliensis, read-out: MIC values (ppm) Aspergillus brasiliensis
# Method: as §1, §6
# Escherichia coli = assay: as above; format: cell-based; conditions: for MIC: Escherichia coli, read-out: MIC values (ppm) Escherichia coli
# Method: as §1, §6
# Candida albicans = assay: as above; format: cell-based; conditions: for MIC values (ppm) Candida aibicans: DIN 58940; for MIC: Candida albicans, read-out: MIC values (ppm) Candida aibicans
# Method: as §1, §6
# [1] = test system: spores of A. brasiliensis; assay: Preservative challenge test (European Pharmacopoeia 7.0, 5.1.3) in anionic emulsion with Dracorin CE; format: cell-based, Aspergillus brasiliensis
# Method: as §1, §2, §3, §4
# Activity of N-Methylsalicylamid (MSA) against the microorganism A. brasiliensis was evaluated in an anionic emulsion with Dracorin CE as emulsifier. The pH value of the emulsion was 5.5.
# Activity of Furoic acid methylester (FAME) against the microorganism A. brasiliensis was evaluated in an anionic emulsion with Dracorin CE as emulsifier. The pH value of the emulsion was 5.5.
# Activity of Salicylamide (SA) against the microorganism A. brasiliensis was evaluated in an anionic emulsion with Dracorin CE as emulsifier. The pH value of the emulsion was 5.5.
# Activity of Salicylic acid hydroxyethyl ester (SAHE) against the microorganism A. brasiliensis was evaluated in an anionic emulsion with Dracorin CE as emulsifier. The pH value of the emulsion was 5.5.
# Activity of Salicylic acid hydroxypropyl ester (SAHP) against the microorganism A. brasiliensis was evaluated in an anionic emulsion with Dracorin CE as emulsifier. The pH value of the emulsion was 5.5.
# Activity of Benzoic acid-3-hydroxypropylester (BAHP) against spores of A. brasiliensis was evaluated in an anionic emulsion with Dracorin CE as emulsifier. The pH value of the emulsion was 7.
# Activity of Anisic acid-3-hydroxypropylester (AAHP) against spores of A. brasiliensis was evaluated in an anionic emulsion with Dracorin CE as emulsifier. The pH value of the emulsion was 7. […]
# [2] = day 2, 0.75% in anionic emulsion
# [3] = day 7, 0.75% in anionic emulsion
# [4] = day 14, 0.75% in anionic emulsion
# [5] = day 28, 0.75% in anionic emulsion
# [6] = day 2, 1.0% in anionic emulsion
# [7] = day 7, 1.0% in anionic emulsion
# [8] = day 14, 1.0% in anionic emulsion
# [9] = day 28, 1.0% in anionic emulsion
# [10] = day 7, 1.0% in anionic emulsion, pH 5.5
# [11] = day 14, 1.0% in anionic emulsion, pH 5.5
# [12] = day 28, 1.0% in anionic emulsion, pH 5.5
structure (smiles),measurement,setting,value
"CCCCCCC(O)CO (centres unmarked) [1,2-Octanediol, reference compound]",Colony counts (cfu/g formulation),S. aureus; [2],<10 cfu/g formulation
same,Colony counts (cfu/g formulation),S. aureus; [3],<10 cfu/g formulation
same,Colony counts (cfu/g formulation),S. aureus; [4],<10 cfu/g formulation
same,Colony counts (cfu/g formulation),S. aureus; [5],<10 cfu/g formulation
same,Colony counts (cfu/g formulation),E. coli; [2],<10 cfu/g formulation
same,Colony counts (cfu/g formulation),E. coli; [3],<10 cfu/g formulation
same,Colony counts (cfu/g formulation),E. coli; [4],<10 cfu/g formulation
same,Colony counts (cfu/g formulation),E. coli; [5],<10 cfu/g formulation
same,Colony counts (cfu/g formulation),P. aeruginosa; [2],<10 cfu/g formulation
same,Colony counts (cfu/g formulation),P. aeruginosa; [3],<10 cfu/g formulation
same,Colony counts (cfu/g formulation),P. aeruginosa; [4],<10 cfu/g formulation
same,Colony counts (cfu/g formulation),P. aeruginosa; [5],<10 cfu/g formulation
same,Colony counts (cfu/g formulation),C. albicans; [3],<10 cfu/g formulation
same,Colony counts (cfu/g formulation),C. albicans; [4],<10 cfu/g formulation
same,Colony counts (cfu/g formulation),C. albicans; [5],<10 cfu/g formulation
"COc1ccc(C(=O)OCCCO)cc1 [AAHP, Anisic acid-3-hydroxypropylester]",Colony counts (cfu/g formulation),S. aureus; [6],<10 cfu/g formulation
same,Colony counts (cfu/g formulation),S. aureus; [7],<10 cfu/g formulation
same,Colony counts (cfu/g formulation),S. aureus; [8],<10 cfu/g formulation
same,Colony counts (cfu/g formulation),S. aureus; [9],<10 cfu/g formulation
same,Colony counts (cfu/g formulation),E. coli; [6],<10 cfu/g formulation
same,Colony counts (cfu/g formulation),E. coli; [7],<10 cfu/g formulation
same,Colony counts (cfu/g formulation),E. coli; [8],<10 cfu/g formulation
same,Colony counts (cfu/g formulation),E. coli; [9],<10 cfu/g formulation
same,MIC values (ppm) Staphylococcus aureus,Staphylococcus aureus,5000 ppm
same,MIC values (ppm) Pseudomonas aeruginosa,Pseudomonas aeruginosa,>5000 ppm
same,MIC values (ppm) Aspergillus brasiliensis,Aspergillus brasiliensis,1000 ppm
same,MIC values (ppm) Escherichia coli,Escherichia coli,2500 ppm
same,MIC values (ppm) Candida aibicans,Candida albicans,2500 ppm
same,Colony counts (cfu/g formulation),[1]; [10],<10 cfu/g formulation
same,Colony counts (cfu/g formulation),"[1]; day 7, 1.0% in anionic emulsion, pH 7",<10 cfu/g formulation
same,Colony counts (cfu/g formulation),[1]; [11],<10 cfu/g formulation
same,Colony counts (cfu/g formulation),"[1]; day 14, 1.0% in anionic emulsion, pH 7",<10 cfu/g formulation
same,Colony counts (cfu/g formulation),[1]; [12],<10 cfu/g formulation
same,Colony counts (cfu/g formulation),"[1]; day 28, 1.0% in anionic emulsion, pH 7",<10 cfu/g formulation
same,Colony counts (cfu/g formulation),P. aeruginosa; [6],<10 cfu/g formulation
same,Colony counts (cfu/g formulation),P. aeruginosa; [7],<10 cfu/g formulation
same,Colony counts (cfu/g formulation),P. aeruginosa; [8],<10 cfu/g formulation
same,Colony counts (cfu/g formulation),P. aeruginosa; [9],<10 cfu/g formulation
same,Colony counts (cfu/g formulation),C. albicans; [6],<10 cfu/g formulation
same,Colony counts (cfu/g formulation),C. albicans; [7],<10 cfu/g formulation
same,Colony counts (cfu/g formulation),C. albicans; [8],<10 cfu/g formulation
same,Colony counts (cfu/g formulation),C. albicans; [9],<10 cfu/g formulation
"O=C(OCCCO)c1ccco1 [FAHP, Furoic acid-3-hydroxypropylester]",Colony counts (cfu/g formulation),S. aureus; [6],<10 cfu/g formulation
same,Colony counts (cfu/g formulation),S. aureus; [7],<10 cfu/g formulation
same,Colony counts (cfu/g formulation),S. aureus; [8],<10 cfu/g formulation
same,Colony counts (cfu/g formulation),S. aureus; [9],<10 cfu/g formulation
same,Colony counts (cfu/g formulation),E. coli; [6],<10 cfu/g formulation
same,Colony counts (cfu/g formulation),E. coli; [7],<10 cfu/g formulation
same,Colony counts (cfu/g formulation),E. coli; [8],<10 cfu/g formulation
same,Colony counts (cfu/g formulation),E. coli; [9],<10 cfu/g formulation
same,MIC values (ppm) Staphylococcus aureus,Staphylococcus aureus,>5000 ppm
same,MIC values (ppm) Pseudomonas aeruginosa,Pseudomonas aeruginosa,>5000 ppm
same,MIC values (ppm) Aspergillus brasiliensis,Aspergillus brasiliensis,5000 ppm
same,MIC values (ppm) Escherichia coli,Escherichia coli,>5000 ppm
same,MIC values (ppm) Candida aibicans,Candida albicans,>5000 ppm
same,Colony counts (cfu/g formulation),P. aeruginosa; [6],<10 cfu/g formulation
same,Colony counts (cfu/g formulation),P. aeruginosa; [7],<10 cfu/g formulation
same,Colony counts (cfu/g formulation),P. aeruginosa; [8],<10 cfu/g formulation
same,Colony counts (cfu/g formulation),P. aeruginosa; [9],<10 cfu/g formulation
same,Colony counts (cfu/g formulation),C. albicans; [8],<10 cfu/g formulation
same,Colony counts (cfu/g formulation),C. albicans; [9],<10 cfu/g formulation
"COC(=O)c1ccco1 [FAME, Furoic acid methylester]",MIC,Aspergillus brasiliensis,> 1000 µg/mL
same,Colony counts (cfu/g formulation),[1]; [12],<10 cfu/g formulation
"CNC(=O)c1ccccc1O [MSA, N-Methylsalicylamid]",MIC,Aspergillus brasiliensis,1000 µg/mL
same,Colony counts (cfu/g formulation),[1]; [10],<10 cfu/g formulation
same,Colony counts (cfu/g formulation),[1]; [11],<10 cfu/g formulation
same,Colony counts (cfu/g formulation),[1]; [12],<10 cfu/g formulation
"NC(=O)c1ccccc1O [SA, Salicylamide]",MIC,Aspergillus brasiliensis,2500 µg/mL
same,Colony counts (cfu/g formulation),[1]; [11],2.0E+03 cfu/g formulation
same,Colony counts (cfu/g formulation),[1]; [12],<10 cfu/g formulation
"O=C(OCCO)c1ccccc1O [SAHE, Salicylic acid hydroxyethyl ester]",MIC,Staphylococcus aureus,> 1000 µg/mL
same,MIC,Pseudomonas aeruginosa,> 1000 µg/mL
same,MIC,Aspergillus brasiliensis,2500 µg/mL
same,MIC,Escherichia coli,2000 µg/mL
same,MIC,Candida albicans,2500 µg/mL
"O=C(OCCCO)c1ccccc1O [SAHP, Salicylic acid hydroxypropyl ester]",MIC,Staphylococcus aureus,1000 µg/mL
same,MIC,Pseudomonas aeruginosa,> 1000 µg/mL
same,MIC,Aspergillus brasiliensis,1000 µg/mL
same,MIC,Escherichia coli,2500 µg/mL
same,MIC,Candida albicans,2500 µg/mL
